Laboratory results reported in patent US20110034429A1, “5a-ANDROSTANE-3,6,17-TRIONE (KNELLER'S TRIONE) AND METHODS OF USE THEREFOR” (priority 2009, published 2011).

Columns and labels:
[1] = Pilot study: oral daily Kneller's Trione in men, plasma sex hormone profile; assay type: in vivo, human; details: for change of testosterone-to-estradiol ratio: 14 days, ending vs starting ratio; for TOTAL TESTOSTERONE / ESTRADIOL / DHT: person
Protocol: The first study subject was a person who was dosed once per day orally with 25 mg per day of Kneller's Trione.
The second study subject was a person who was dosed once per day orally with 50 mg per day of Kneller's Trione.
The third study subject was a person who was dosed once per day orally with 100 mg per day of Kneller's Trione.

[2] = Pilot study: adverse events and safety observations in study subjects; assay type: in vivo, human

## C[C@]12CCC(=O)C[C@@H]1C(=O)C[C@@H]1[C@@H]2CC[C@]2(C)C(=O)CC[C@@H]12 [Kneller's Trione, 5α-androstane-3,6,17-trione]
[1]; 25 mg daily oral
  change of testosterone-to-estradiol ratio: 130%
[1]; 50 mg daily oral
  change of testosterone-to-estradiol ratio: 28%
[1]; 250 mg per day oral
  effect on bioavailable testosterone level: raised
  effect on total testosterone level: raised
[1]; 500 mg per day oral
  effect on bioavailable testosterone level: raised
  effect on total testosterone level: raised
[1]; 750 mg per day oral
  added benefits with high dosage: no added benefits were seen
[1]; general statement
  changes in plasma estradiol levels in men: no changes outside the accepted normal limits
  effect on plasma testosterone levels in men: substantial and significant increases
[1]; oral administration
  increase of plasma free testosterone levels: more than 100%
[1]; 25 mg per day oral, single dose, DAY 7 (baseline 6,290 pg/mL)
  TOTAL TESTOSTERONE: 6,400 pg/mL
[1]; 25 mg per day oral, DAY 7 (baseline 47 pg/mL)
  ESTRADIOL: 28 pg/mL
[1]; 25 mg per day oral, DAY 7 (baseline 42 ng/dL)
  DHT: 36 ng/dL
[1]; 25 mg per day oral, DAY 14 (baseline 47 pg/mL)
  ESTRADIOL: 23 pg/mL
[1]; 25 mg per day oral, DAY 14 (baseline 42 ng/dL)
  DHT: 49 ng/dL
[1]; 50 mg per day oral, single dose, DAY 7 (baseline 8,570 pg/mL)
  TOTAL TESTOSTERONE: 11,000 pg/mL
[1]; 50 mg per day oral, DAY 7 (baseline 36 pg/mL)
  ESTRADIOL: 35 pg/mL
[1]; 50 mg per day oral, DAY 7 (baseline 47 ng/dL)
  DHT: 46 ng/dL
[1]; 50 mg per day oral, DAY 14 (baseline 36 pg/mL)
  ESTRADIOL: 36 pg/mL
[1]; 50 mg per day oral, DAY 14 (baseline 8,570 pg/mL)
  TOTAL TESTOSTERONE: 11,000 pg/mL
[1]; 50 mg per day oral, DAY 14 (baseline 47 ng/dL)
  DHT: 49 ng/dL
[1]; 100 mg per day oral, DAY 7 (baseline 46 pg/mL)
  ESTRADIOL: 44 pg/mL
[1]; 100 mg per day oral, DAY 7 (baseline 35 ng/dL)
  DHT: 48 ng/dL
[1]; 100 mg per day oral, DAY 14 (baseline 46 pg/mL)
  ESTRADIOL: 34 pg/mL
[1]; 100 mg per day oral, DAY 14 (baseline 35 ng/dL)
  DHT: 41 ng/dL
[2]; 750 mg per day oral
  adverse event causing the subject to withdraw: priaprism
[2]; oral daily dosages 25 mg to 750 mg
  other adverse events noted by any study subject: No other adverse events
